Measured values from ChEMBL document CHEMBL4219024, “A "Click Chemistry Platform" for the Rapid Synthesis of Bispecific Molecules for Inducing Protein Degradation” (J Med Chem, 2018).
Values after ≈ are worked out from the molar mass of the structure shown. Active and inactive are the calls of the source. The calls are words filed in the database; no cut-off is given here.

Assays:
[1] = molecular target: T1, Protein cereblon/Bromodomain-containing protein 4/DNA damage-binding protein 1 (Homo sapiens, UniProt O60885+Q96SW2+Q16531); experiment: Induction of CRBN/DDB1-mediated BRD4 protein degradation in human NCI-H661 cells assessed as drug level causing 50% cellular protein depletion incubated for 4 hrs by MSD assay
[2] = Solubility of the compound in PBS
[3] = Solubility of the compound in 0.01 N HCl
[4] = molecular target: T2, von Hippel-Lindau disease tumor suppressor/Bromodomain-containing protein 4 (Homo sapiens) (UniProt O60885+P40337); experiment: Proteolysis targeting chimera activity in human NCI-H661 cells assessed as induction of VHL-mediated delivery of BRD4 for protein degradation by proteasome after 4 hrs in presence of 2-(prop-2-ynyloxy)ethanol by Meso Scale Diagnostics assay; type: cell-based
[5] = molecular target: T2, von Hippel-Lindau disease tumor suppressor/Bromodomain-containing protein 4 (Homo sapiens); experiment: Induction of human His-tagged VHL(1 to 154)/GST-tagged BRD4 (49 to 170 residues) interaction assessed as VHL/BRD4/compound complex formation preincubated for 60 mins and measured after 60 mins by luminescence based Alphascreen proximity assay relative to control; type: protein assay
physchem = settings: fasted state simulated intestinal fluid
[6] = molecular target: T1, Protein cereblon/Bromodomain-containing protein 4/DNA damage-binding protein 1; experiment: Proteolysis targeting chimera activity in human NCI-H661 cells assessed as induction of CRBN/DDB1-mediated delivery of BRD4 for protein degradation by proteasome at 10 uM after 4 hrs by Meso Scale Diagnostics assay; type: cell-based
[7] = molecular target: T1, Protein cereblon/Bromodomain-containing protein 4/DNA damage-binding protein 1; experiment: Proteolysis targeting chimera activity in human NCI-H661 cells assessed as induction of CRBN/DDB1-mediated delivery of BRD4 for protein degradation at 1 uM after 4 hrs by Meso Scale Diagnostics assay; type: cell-based
[8] = molecular target: T1, Protein cereblon/Bromodomain-containing protein 4/DNA damage-binding protein 1; experiment: Proteolysis targeting chimera activity in human NCI-H661 cells assessed as induction of CRBN/DDB1-mediated delivery of BRD4 for protein degradation by proteasome at 1 uM after 4 hrs in presence of 10 uM of JQ-1 by Meso Scale Diagnostics assay; type: cell-based
[9] = molecular target: T1, Protein cereblon/Bromodomain-containing protein 4/DNA damage-binding protein 1; experiment: Proteolysis targeting chimera activity in human NCI-H661 cells assessed as induction of CRBN/DDB1-mediated delivery of BRD4 for protein degradation by proteasome at 1 uM after 4 hrs in presence of 10 uM thalidomide by Meso Scale Diagnostics assay; type: cell-based
[10] = molecular target: T1, Protein cereblon/Bromodomain-containing protein 4/DNA damage-binding protein 1; experiment: Proteolysis targeting chimera activity in human NCI-H661 cells assessed as induction of CRBN/DDB1-mediated delivery of BRD4 for protein degradation by proteasome at 1 uM after 4 hrs in presence of 20 uM MG132 by Meso Scale Diagnostics assay; type: cell-based

T2 sequence (P40337 whole entry, looked up, other chains not shown, the tested form may be a part): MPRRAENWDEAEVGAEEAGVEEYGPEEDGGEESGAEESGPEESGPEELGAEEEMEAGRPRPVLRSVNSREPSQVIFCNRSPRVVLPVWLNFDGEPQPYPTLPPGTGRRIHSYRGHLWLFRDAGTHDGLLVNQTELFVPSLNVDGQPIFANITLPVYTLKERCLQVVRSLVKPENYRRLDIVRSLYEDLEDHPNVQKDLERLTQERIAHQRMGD

| solubility [2] [µM] | solubility ([3]; 0.01 N HCl) [µM] | %max [5] [%] | solubility (physchem) [µM] | SMILES | DC50 [1] [nM] | also measured |
| --- | --- | --- | --- | --- | --- | --- |
| 38 (≈ 39.5 µg/mL) | 343 (≈ 357 µg/mL) | 22 | 178 (≈ 185 µg/mL) | Cc1ncsc1-c1ccc(CNC(=O)[C@@H]2C[C@@H](O)CN2C(=O)[C@@H](NC(=O)COCCOCc2cn(CCNC(=O)C[C@@H]3N=C(c4ccc(Cl)cc4)c4c(sc(C)c4C)-n4c(C)nnc43)nn2)C(C)(C)C)cc1 | 83 | Activity [4]: inactive |
| 130 (≈ 119 µg/mL) | 310 (≈ 283 µg/mL) | – | 216 (≈ 197 µg/mL) | Cc1sc2c(c1C)C(c1ccc(Cl)cc1)=N[C@@H](CC(=O)NCCn1cc(COCCOCCOCCOc3cccc4c3C(=O)N(C3CCC(=O)NC3=O)C4=O)nn1)c1nnc(C)n1-2 (stereo partly specified) | – | – |
| 71 (≈ 76.9 µg/mL) | 293 (≈ 318 µg/mL) | 11 | 183 (≈ 198 µg/mL) | Cc1ncsc1-c1ccc(CNC(=O)[C@@H]2C[C@@H](O)CN2C(=O)[C@@H](NC(=O)COCCOCCOCc2cn(CCNC(=O)C[C@@H]3N=C(c4ccc(Cl)cc4)c4c(sc(C)c4C)-n4c(C)nnc43)nn2)C(C)(C)C)cc1 | 240 | – |
| 206 (≈ 241 µg/mL) | 500 (≈ 586 µg/mL) | 3 | 313 (≈ 367 µg/mL) | Cc1ncsc1-c1ccc(CNC(=O)[C@@H]2C[C@@H](O)CN2C(=O)[C@@H](NC(=O)COCCOCCOCCOCCOCc2cn(CCNC(=O)C[C@@H]3N=C(c4ccc(Cl)cc4)c4c(sc(C)c4C)-n4c(C)nnc43)nn2)C(C)(C)C)cc1 | 630 | – |
| 111 (≈ 91.6 µg/mL) | 242 (≈ 200 µg/mL) | – | 247 (≈ 204 µg/mL) | Cc1sc2c(c1C)C(c1ccc(Cl)cc1)=N[C@@H](CC(=O)NCCn1cc(COCCOc3cccc4c3C(=O)N(C3CCC(=O)NC3=O)C4=O)nn1)c1nnc(C)n1-2 (stereo partly specified) | > 5000 | – |
| 76 (≈ 66.1 µg/mL) | 237 (≈ 206 µg/mL) | – | 237 (≈ 206 µg/mL) | Cc1sc2c(c1C)C(c1ccc(Cl)cc1)=N[C@@H](CC(=O)NCCn1cc(COCCOCCOc3cccc4c3C(=O)N(C3CCC(=O)NC3=O)C4=O)nn1)c1nnc(C)n1-2 (stereo partly specified) | > 5000 | – |
| – | 314 (≈ 313 µg/mL) | 46 | 90 (≈ 89.6 µg/mL) | Cc1ncsc1-c1ccc(CNC(=O)[C@H]2CN(C(=O)[C@@H](NC(=O)COCc3cn(CCNC(=O)C[C@@H]4N=C(c5ccc(Cl)cc5)c5c(sc(C)c5C)-n5c(C)nnc54)nn3)C(C)(C)C)C[C@@H]2O)cc1 | 59 | – |
| – | – | – | – | C#CCOCCOCCOCCOCCOc1cccc2c1C(=O)N(C1CCC(=O)NC1=O)C2=O (stereo unspecified) | – | Activity [6]: inactive |
| 158 (≈ 151 µg/mL) | 317 (≈ 304 µg/mL) | – | 273 (≈ 261 µg/mL) | Cc1sc2c(c1C)C(c1ccc(Cl)cc1)=N[C@@H](CC(=O)NCCn1cc(COCCOCCOCCOCCOc3cccc4c3C(=O)N(C3CCC(=O)NC3=O)C4=O)nn1)c1nnc(C)n1-2 (stereo partly specified) | 200 | Activity [7]: > 90%; Activity [8]: inactive; Activity [9]: inactive; Activity [10]: inactive |
| – | – | – | – | Cc1sc2c(c1C)C(c1ccc(Cl)cc1)=N[C@@H](CC(=O)NCCN=[N+]=[N-])c1nnc(C)n1-2 | – | Activity [6]: inactive |
| 168 (≈ 189 µg/mL) | 394 (≈ 444 µg/mL) | 15 | 294 (≈ 332 µg/mL) | Cc1ncsc1-c1ccc(CNC(=O)[C@@H]2C[C@@H](O)CN2C(=O)[C@@H](NC(=O)COCCOCCOCCOCc2cn(CCNC(=O)C[C@@H]3N=C(c4ccc(Cl)cc4)c4c(sc(C)c4C)-n4c(C)nnc43)nn2)C(C)(C)C)cc1 | 460 | – |
| 97 (≈ 97.3 µg/mL) | – | 100 | 164 (≈ 164 µg/mL) | Cc1ncsc1-c1ccc(CNC(=O)[C@@H]2C[C@@H](O)CN2C(=O)[C@@H](NC(=O)COCCOCCOCCNC(=O)C[C@@H]2N=C(c3ccc(Cl)cc3)c3c(sc(C)c3C)-n3c(C)nnc32)C(C)(C)C)cc1 | – | solubility ([3]; buffer): 450 µM (≈ 451 µg/mL) |
| 60 (≈ 47.1 µg/mL) | 171 (≈ 134 µg/mL) | – | 97 (≈ 76.2 µg/mL) | Cc1sc2c(c1C)C(c1ccc(Cl)cc1)=N[C@@H](CC(=O)NCCCCNC(=O)COc1cccc3c1C(=O)N(C1CCC(=O)NC1=O)C3=O)c1nnc(C)n1-2 (stereo partly specified) | – | – |
| 31 (≈ 24.2 µg/mL) | 171 (≈ 134 µg/mL) | – | 191 (≈ 149 µg/mL) | Cc1sc2c(c1C)C(c1ccc(Cl)cc1)=N[C@@H](CC(=O)NCCn1cc(COc3cccc4c3C(=O)N(C3CCC(=O)NC3=O)C4=O)nn1)c1nnc(C)n1-2 (stereo partly specified) | – | – |
